# Measurements published in PubChem BioAssay AID1963961 (Molecular Pharmacology Branch, DTP, NCI, 2024).
# System: K98450-129-R-PDC multicell spheroids, viability
# Assay: Anticancer human tumor K98450-129-R-PDC patient-derived colon adenocarcinoma cell line growth inhibition [PI3K]
# Settings: for IC50: curve of first compound; for viability, T/C: stronger effect = lower value
# Procedure, shortened: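 Viability of mixed-cell spheroids was determined after exposure to pairwise combinations, one partner being inavolisib, alpelisib, duvelisib or copanlisib. Highest tested concentration matched clinical Cmax where known and 10 microM where not, descending in half-log steps.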
# 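Further: spheroids exposed to agents for seven days before read-out.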
smiles,measurement,setting,value
CNC(=O)c1ccc(N2C(=S)N(c3ccc(C#N)c(C(F)(F)F)c3)C(=O)C2(C)C)cc1F + COc1c(OCCCN2CCOCC2)ccc2c3n(c(=NC(=O)c4cnc(N)nc4)nc12)CCN3,IC50,second compound 0.00316 µM,> 10000 nM
same,IC50,second compound 0.01 µM,> 10000 nM
same,IC50,second compound 0.0316 µM,> 10000 nM
same,IC50,second compound 0.1 µM,> 10000 nM
same,IC50,second compound 0.316 µM,> 10000 nM
same,IC50,second compound 1 µM,> 10000 nM
same,"viability, T/C","second compound 0.00316 µM, first compound 0.0316 µM",108%
same,"viability, T/C","second compound 0.00316 µM, first compound 0.1 µM",102%
same,"viability, T/C","second compound 0.00316 µM, first compound 0.316 µM",88.7%
same,"viability, T/C","second compound 0.00316 µM, first compound 1 µM",97.1%
same,"viability, T/C","second compound 0.00316 µM, first compound 3.16 µM",108%
same,"viability, T/C","second compound 0.00316 µM, first compound 10 µM",101%
same,"viability, T/C","second compound 0.01 µM, first compound 0.0316 µM",98.6%
same,"viability, T/C","second compound 0.01 µM, first compound 0.1 µM",107%
same,"viability, T/C","second compound 0.01 µM, first compound 0.316 µM",80.1%
same,"viability, T/C","second compound 0.01 µM, first compound 1 µM",77.8%
same,"viability, T/C","second compound 0.01 µM, first compound 3.16 µM",100%
same,"viability, T/C","second compound 0.01 µM, first compound 10 µM",98.8%
same,"viability, T/C","second compound 0.0316 µM, first compound 0.0316 µM",96.4%
same,"viability, T/C","second compound 0.0316 µM, first compound 0.1 µM",96.9%
same,"viability, T/C","second compound 0.0316 µM, first compound 0.316 µM",84.4%
same,"viability, T/C","second compound 0.0316 µM, first compound 1 µM",81.5%
same,"viability, T/C","second compound 0.0316 µM, first compound 3.16 µM",95.7%
same,"viability, T/C","second compound 0.0316 µM, first compound 10 µM",68.1%
same,"viability, T/C","second compound 0.1 µM, first compound 0.0316 µM",67.1%
same,"viability, T/C","second compound 0.1 µM, first compound 0.1 µM",83.2%
same,"viability, T/C","second compound 0.1 µM, first compound 0.316 µM",72.6%
same,"viability, T/C","second compound 0.1 µM, first compound 1 µM",77%
same,"viability, T/C","second compound 0.1 µM, first compound 3.16 µM",78.7%
same,"viability, T/C","second compound 0.1 µM, first compound 10 µM",70.1%
same,"viability, T/C","second compound 0.316 µM, first compound 0.0316 µM",67.4%
same,"viability, T/C","second compound 0.316 µM, first compound 0.1 µM",65.6%
same,"viability, T/C","second compound 0.316 µM, first compound 0.316 µM",73.5%
same,"viability, T/C","second compound 0.316 µM, first compound 1 µM",58.5%
same,"viability, T/C","second compound 0.316 µM, first compound 3.16 µM",79.1%
same,"viability, T/C","second compound 0.316 µM, first compound 10 µM",39.8%
same,"viability, T/C","second compound 1 µM, first compound 0.0316 µM",43.6%
same,"viability, T/C","second compound 1 µM, first compound 0.1 µM",58.4%
same,"viability, T/C","second compound 1 µM, first compound 0.316 µM",54.2%
same,"viability, T/C","second compound 1 µM, first compound 1 µM",50.1%
same,"viability, T/C","second compound 1 µM, first compound 3.16 µM",57.2%
same,"viability, T/C","second compound 1 µM, first compound 10 µM",65.5%
Cn1cnc2c(F)c(Nc3ccc(Br)cc3Cl)c(C(=O)NOCCO)cc21 + COc1c(OCCCN2CCOCC2)ccc2c3n(c(=NC(=O)c4cnc(N)nc4)nc12)CCN3,IC50,second compound 0.00316 µM,663 nM
same,IC50,second compound 0.01 µM,1000 nM
same,IC50,second compound 0.0316 µM,351 nM
same,IC50,second compound 0.1 µM,303 nM
same,IC50,second compound 0.316 µM,102 nM
same,IC50,second compound 1 µM,< 9.49 nM
same,"viability, T/C","second compound 0.00316 µM, first compound 0.00949 µM",98.5%
same,"viability, T/C","second compound 0.00316 µM, first compound 0.03 µM",77.5%
same,"viability, T/C","second compound 0.00316 µM, first compound 0.0949 µM",76.3%
same,"viability, T/C","second compound 0.00316 µM, first compound 0.3 µM",68.8%
same,"viability, T/C","second compound 0.00316 µM, first compound 0.949 µM",41.5%
same,"viability, T/C","second compound 0.00316 µM, first compound 3 µM",21.3%
same,"viability, T/C","second compound 0.01 µM, first compound 0.00949 µM",94.7%
same,"viability, T/C","second compound 0.01 µM, first compound 0.03 µM",77.9%
same,"viability, T/C","second compound 0.01 µM, first compound 0.0949 µM",74.6%
same,"viability, T/C","second compound 0.01 µM, first compound 0.3 µM",65.5%
same,"viability, T/C","second compound 0.01 µM, first compound 0.949 µM",58.9%
same,"viability, T/C","second compound 0.01 µM, first compound 3 µM",18.2%
same,"viability, T/C","second compound 0.0316 µM, first compound 0.00949 µM",91.6%
same,"viability, T/C","second compound 0.0316 µM, first compound 0.03 µM",86.1%
same,"viability, T/C","second compound 0.0316 µM, first compound 0.0949 µM",66%
same,"viability, T/C","second compound 0.0316 µM, first compound 0.3 µM",50.2%
same,"viability, T/C","second compound 0.0316 µM, first compound 0.949 µM",37.7%
same,"viability, T/C","second compound 0.0316 µM, first compound 3 µM",14.7%
same,"viability, T/C","second compound 0.1 µM, first compound 0.00949 µM",87.4%
same,"viability, T/C","second compound 0.1 µM, first compound 0.03 µM",71.4%
same,"viability, T/C","second compound 0.1 µM, first compound 0.0949 µM",71.8%
same,"viability, T/C","second compound 0.1 µM, first compound 0.3 µM",49.9%
same,"viability, T/C","second compound 0.1 µM, first compound 0.949 µM",26.7%
same,"viability, T/C","second compound 0.1 µM, first compound 3 µM",5.26%
same,"viability, T/C","second compound 0.316 µM, first compound 0.00949 µM",56.4%
same,"viability, T/C","second compound 0.316 µM, first compound 0.03 µM",49.9%
same,"viability, T/C","second compound 0.316 µM, first compound 0.0949 µM",47.8%
same,"viability, T/C","second compound 0.316 µM, first compound 0.3 µM",39.2%
same,"viability, T/C","second compound 0.316 µM, first compound 0.949 µM",11.4%
same,"viability, T/C","second compound 0.316 µM, first compound 3 µM",6.72%
same,"viability, T/C","second compound 1 µM, first compound 0.00949 µM",45.9%
same,"viability, T/C","second compound 1 µM, first compound 0.03 µM",37.8%
same,"viability, T/C","second compound 1 µM, first compound 0.0949 µM",29.8%
same,"viability, T/C","second compound 1 µM, first compound 0.3 µM",22.6%
same,"viability, T/C","second compound 1 µM, first compound 0.949 µM",9.08%
same,"viability, T/C","second compound 1 µM, first compound 3 µM",4.95%
